Results taken from patent publication US20220218614A1, “IONIZABLE CATIONIC LIPIDS AND LIPID NANOPARTICLES, AND METHODS OF SYNTHESIS AND USE THEREOF” (Tidal Therapeutics, Inc., priority 2020, published 2022).
Entries after “also recorded” stand apart in the source; their conditions may differ.

Key:
human CD3 T cells = assay: Transfection of human CD3 T cells (CD8 and CD4 subsets) with Fab/Nb-targeted LNPs; assay type: cell-based; settings: targeted Lipid 8 LNP (Lipid 5 in Example 43), GFP mRNA approximately 2.5 μg/mL, approximately 24 hr
Protocol: (§1) LNPs were prepared using the mixing process described in Example 6, the buffer exchange process described below in Example 21. Using methods similar to Example 12, hSP34 and TRX2 Fab-lipid conjugates and a non-T cell specific anti-HER2 lipid-conjugate (Nellis D F, Ekstrom D L, Kirpotin D B, Zhu J, Andersson R, Broadt T L, Ouellette T F, Perkins S C, Roach J M, Drummond D C, Hong K, Marks J D, Park J W and Giardina S L (2005) Preclinical manufacture of an anti-HER2 scFv-PEG-DSPE, liposome-inserting conjugate. 1. Gram-scale production and purification. Biotechnol Prog 21:205-220) were post-inserted at various densities (SP34 0.25-17 g/mol; TRX2 0.25-9 g/mol; SP34+TRX2 0.25-9 g/mol each conjugate; anti-HER2 17 g/mol) into LNPs containing Lipid 8 and anti-CD20 targeting CART mRNA. Transfections were performed with human CD3 T cells at approximately 2.5 μg/mL mRNA for approximately 24 hr. For FACS analysis T cells were stained with M1 antibody (Sigma, F3040) that bind a N-terminus FLAG-tag variant sequence on the TTR-023 CAR (sequence provided below) in addition to staining for CD69 (Biolegend, 310930) and CD4 (Biolegend, 344648) to differentiate CD8 from CD4 cells.
LNPs were prepared using the mixing process described in Example 6, the buffer exchange process described in Example 21. Using methods similar to Example 12, hSP34, TRX2, and Ibalizumab Fab-lipid conjugates and a non-T cell specific anti-HER2 lipid-conjugate were post-inserted at various densities (specified in FIGS. 20A and 20B into LNPs containing Lipid 8 and Cy5/GFP mRNA. Transfections were performed with human CD3 T cells at approximately 2.5 μg/mL mRNA for approximately 24 hr and stained for CD69 (Biolegend, 310930) and CD4 (Biolegend, 344648) to differentiate CD8 from CD4 cells by FACS analysis.
LNPs were prepared using the mixing process described in Example 6, the buffer exchange process described in Example 21. […] Levels of transfection of CD3 T cells was measured by flow cytometry. […]

CD69 = CD69 upregulation on T cells after LNP transfection (FACS staining); assay type: cell-based, human; settings: approximately 24 hr after targeted Lipid 8 LNPs at approximately 2.5 μg/mL mRNA
Protocol: as §1
LNPs were prepared using the mixing process described in Example 6, the buffer exchange process described in Example 21. […]

Ibalizumab: anti-CD4 Fab from Ibalizumab sequence, SEQ ID NO: 10 and 11
% GFP transfection and GFP expression (MFI) of CD8 and CD4 T cells, in words (human CD3 T cells): higher % transfection (FIG. 71A) and GFP expression levels; also recorded: highly specific LNP transfection and protein translation of CD4+ T cells versus CD8+ T cells; also recorded: increase in transfection efficiency going from 2K PEG to 3.4K PEG; also recorded: high binding and transfection of CD4 T cells while displaying minimal off-target binding and transfection of CD8 T cells
CD69 upregulation on CD8 and CD4 T cells, in words (CD69): much lower levels of CD69
